Test results published in the supplement of paper PMC10307832.

How the values were obtained:
Assay in all cases: relative viability (nuclei count vs DMSO), 5 days (fraction); higher = more cells survive
[1] = compound: O=C(c1cc(Cc2n[nH]c(=O)c3ccccc23)ccc1F)N1CCN(C(=O)C2CC2)CC1 [Olaparib] + CC(=O)c1c(C)c2cnc(Nc3ccc(N4CCNCC4)cn3)nc2n(C2CCCC2)c1=O [Palbociclib] (partner 0.5 µM)
How it was run: (§1)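 Lung cancer cell lines were pin-tool dosed in 1536-well plates on the day after seeding, with either a lone drug or a fixed anchor-drug dose plus five library-drug doses (not always all listed) in √10 steps. Nuclei were counted on 4× images after 5 days. Relative viability is the ratio of treated-well to vehicle-well nuclei counts, with each value a median of duplicate plates.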

[2] = compound: O=C(c1cc(Cc2n[nH]c(=O)c3ccccc23)ccc1F)N1CCN(C(=O)C2CC2)CC1 [Olaparib] + CC(C)C[C@H](NC(=O)[C@H](Cc1ccccc1)NC(=O)c1cnccn1)B(O)O [Bortezomib] (partner 0.002 µM)
How it was run: as §1

[3] = compound: O=C(c1cc(Cc2n[nH]c(=O)c3ccccc23)ccc1F)N1CCN(C(=O)C2CC2)CC1 [Olaparib] + Cc1cc(Nc2cc(N3CCN(C)CC3)nc(Sc3ccc(NC(=O)C4CC4)cc3)n2)n[nH]1 [Tozasertib] (partner 0.1 µM)
How it was run: as §1

[4] = compound: CC(C)C[C@H](NC(=O)[C@H](CCc1ccccc1)NC(=O)CN1CCOCC1)C(=O)N[C@@H](Cc1ccccc1)C(=O)N[C@@H](CC(C)C)C(=O)[C@@]1(C)CO1 [Carfilzomib] + COc1cccc2cc(-c3nc([C@H]4CC[C@H](C(=O)O)CC4)n4ncnc(N)c34)[nH]c12 [OSI-027] (partner 0.5 µM)
How it was run: as §1

Cell Line | relative viability ([1]; first compound 0.08 µM) | relative viability ([1]; first compound 0.253 µM) | relative viability ([1]; first compound 2.53 µM) | relative viability ([1]; first compound 8 µM) | relative viability ([2]; first compound 0.08 µM) | relative viability ([2]; first compound 0.253 µM) | relative viability ([2]; first compound 2.53 µM) | relative viability ([2]; first compound 8 µM) | relative viability ([3]; first compound 0.08 µM) | relative viability ([3]; first compound 0.253 µM) | relative viability ([3]; first compound 2.53 µM) | relative viability ([3]; first compound 8 µM) | relative viability ([4]; first compound 0.001 µM) | relative viability ([4]; first compound 0.003162 µM) | relative viability ([4]; first compound 0.01 µM) | relative viability ([4]; first compound 0.03162 µM) | relative viability ([4]; first compound 0.1 µM)
LOU-NH91 | 0.55 | 0.538 | 0.526 | 0.533 | 0.502 | 0.462 | 0.512 | 0.394 | 0.729 | 0.674 | 0.637 | 0.628 | 0.77 | 0.801 | 0.711 | 0.259 | 0.322
NCI-H1755 | 0.415 | 0.436 | 0.445 | 0.436 | 1.03 | 0.92 | 0.921 | 0.893 | 0.611 | 0.547 | 0.548 | 0.531 | 0.707 | 0.777 | 0.746 | 0.65 | 0.25
NCI-H647 | 0.431 | 0.331 | 0.321 | 0.381 | 1.18 | 0.942 | 0.864 | 0.416 | 0.253 | 0.258 | 0.407 | 0.255 | 0.562 | 0.747 | 0.583 | 0.0357 | 0.0226
LCLC-103H | 0.524 | 0.455 | 0.513 | 0.494 | 1.04 | 1.07 | 1.05 | 0.948 | 0.499 | 0.47 | 0.528 | 0.41 | 0.462 | 0.463 | 0.541 | 0.483 | 0.277
NCI-H1437 | 0.32 | 0.303 | 0.327 | 0.353 | 0.504 | 0.422 | 0.529 | 0.424 | 0.424 | 0.393 | 0.394 | 0.379 | 0.876 | 0.952 | 0.841 | 0.889 | 0.241
NCI-H2170 | 0.427 | 0.395 | 0.411 | 0.315 |  |  |  |  | 0.81 | 0.806 | 0.705 | 0.629 | 0.643 | 0.696 | 0.792 | 0.72 | 0.271
HCC-15 | 0.785 | 0.659 | 0.714 | 0.722 | 1.18 | 0.984 | 1.03 | 0.9 | 0.479 | 0.341 | 0.406 | 0.29 | 0.706 | 0.801 | 0.763 | 0.279 | 0.0802
NCI-H1648 | 0.236 | 0.305 |  | 0.246 |  |  |  |  |  | 0.482 |  | 0.556 |  | 0.272 | 0.256 | 0.255 | 0.298
NCI-H661 | 0.384 | 0.383 | 0.389 | 0.362 | 1.06 | 0.745 | 0.703 | 0.582 | 0.346 | 0.355 | 0.34 | 0.343 | 0.698 | 0.705 | 0.722 | 0.675 | 0.394
NCI-H650 | 0.324 | 0.312 | 0.311 | 0.227 | 0.978 | 0.672 | 0.561 | 0.516 | 0.974 | 0.72 | 0.656 | 0.541 |  | 0.612 | 0.54 | 0.439 | 0.221
RERF-LC-KJ | 1.17 | 0.964 | 1.08 | 1.02 | 1.19 | 1.14 | 1.03 | 1.06 | 0.531 | 0.453 | 0.505 | 0.475 | 0.551 | 0.525 | 0.72 | 0.322 | 0.221
SK-LU-1 | 0.452 | 0.346 | 0.419 | 0.343 | 1.33 | 1.08 | 1.23 | 1.19 | 0.355 | 0.323 | 0.335 | 0.247 | 0.36 | 0.362 | 0.399 | 0.102 | 0.138
NCI-H1792 | 0.694 | 0.576 | 0.63 | 0.617 | 1.02 | 0.735 | 0.804 | 0.784 |  |  |  |  | 0.727 | 0.794 | 0.684 | 0.633 | 0.519
NCI-H1666 | 0.669 | 0.717 | 0.677 | 0.609 | 0.771 | 0.799 | 0.633 | 0.65 | 0.619 | 0.733 | 0.583 | 0.515 | 0.807 | 0.87 | 0.955 | 0.749 | 0.383
SK-MES-1 | 0.376 | 0.278 | 0.325 | 0.254 |  |  |  |  | 0.962 | 0.828 | 0.818 | 0.562 | 0.637 | 0.632 | 0.652 | 0.336 | 0.145
NCI-H1915 | 0.529 | 0.469 | 0.405 | 0.294 | 0.957 | 0.758 | 0.792 | 0.645 | 0.447 | 0.372 | 0.368 | 0.274 | 0.596 | 0.654 | 0.59 | 0.457 | 0.0943
SW 1573 | 0.468 | 0.377 | 0.338 | 0.252 | 1.03 | 0.987 | 0.769 | 0.619 | 0.148 | 0.165 | 0.234 | 0.172 | 0.717 | 0.771 | 0.403 | 0.0525 | 0.0647
NCI-H2087 | 0.282 | 0.211 | 0.259 | 0.217 | 0.96 | 0.753 | 0.842 | 0.66 | 0.31 | 0.204 | 0.324 | 0.18 | 0.593 | 0.636 | 0.302 | 0.0521 | 0.0683
BEN | 0.531 | 0.454 | 0.451 | 0.51 | 0.651 | 0.632 | 0.881 | 0.829 | 0.53 | 0.48 | 0.529 | 0.48 | 0.312 | 0.313 | 0.3 | 0.294 | 0.263
